Measured values reported in patent US20220249347A1, “Composition and Method Containing Pea and Quinoa Natural Peptides And Niacinamide to Enhance Skin Glow, Radiance And Even Skin Tone” (TRI-K Industries, Inc., priority 2021, published 2022).

Test system: RHE-MEL 3D in vitro Caucasian skin model
Assay: Skin pigmentation (ITA°) on melanized reconstructed human epidermis 3D model RHE-MEL
Type: cell-based
Conditions: 14 days study, treated daily for 10 days; Skin Care Composition at 1%, niacinamide at same use level; versus untreated
Procedure: The protocol for this study including the following. A melanized reconstructed human epidermis 3D Model (RHE-MEL) (in vitro Caucasian skin model) was used. The study duration was for 14 days. The RHE-MEL 3D in vitro skin tissues were allowed to grow in the first 4 days. The 3D skin tissues were treated every day with the materials for 10 days. The following samples were used: Untreated sample, Benchmark Niacinamide (at same use level as in Skin Care Composition), and Skin Care Composition used at 1%. Concentrations of materials were predetermined based on screening MTT assay. A C-Cube Dermoscope® (a high quality magnifying lens and a powerful lighting system used to evaluate pigmented skin lesions, and can diagnose melanoma), was used coupled with C-Cube clinical software for image analysis. Skin pigmentation was analyzed via high resolution pictures obtained from the C-Cube Dermoscope® coupled with an image analysis software. ITA° parameter was measured as degree of pigmentation of the skin directly on in vitro 3D RHE-MEL skin model. Statistical analysis was done using the Student T-test with a confidence level of (p<0.05).
In this 3D RHE-MEL in vitro Caucasian model skin measured was the intensity of the skin pigmentation degree by ITA° parameter (individual typological angle). […]

NC(=O)c1cccnc1 [Niacinamide] was tested, and the “ITA° (individual typology angle), degree of skin pigmentation” value was “increased the ITA°”.
